# In patent US12595253B2, “Benzamides of pyrazolylamino-pyrimidinyl derivatives, and compositions and methods thereof” (LYNK PHARMACEUTICALS CO. LTD., priority 2019, dated 2026):
# Tests used:
# Assay type in all cases: biochemical
# TYK2 = target: T1, TYK2 (Homo sapiens, UniProt P29597); assay: TYK2 microfluidic kinase assay (Caliper EZ Reader II, FAM labeled peptide substrate); conditions: IC50 TYK2 ([…]) (1 mM ATP), TYK2 […], 1 mM ATP
# T1 construct: purchased Carna Biosciences
# Protocol: Compounds were tested against JAK1, JAK2, JAK2V617F and TYK2. Assay Formats: JAK activity was determined in the reaction buffer 50 mM HEPES, 0.01% Brij35, 10 mM MgCl2, 2 mM DTT by a microfluidic assay. The phosphorylation of a FAM labeled peptide substrate was monitored in the Caliper EZ Reader II (Perkin Elmer). The assay condition for each batch of enzyme (Carna Biosciences) was optimized to obtain 10% conversion rate of peptide substrate. The test compounds were dissolved in DMSO to a stock concentration of 10 mM. 3-fold serially diluted compounds with top concentration of 5 μM were pre-incubated with JAK1, JAK2, JAK2V617F or TYK2 at indicated concentrations for 10 min at ambient temperature. The final DMSO concentration of assay mixture was 1%. […] The reaction was stopped by adding 50 mM EDTA. The reaction time for JAK1, JAK2, JAK2V617F and TYK2 was 120 min, 20 min, 30 min and 10 min, respectively. […] And the well without compound but with equivalent DMSO was defined as no inhibition. The percent inhibition was calculated by the following formula. % Inhibition=(Conversionmax−Conversionsample)/(Conversionmax−Conversionmin)*100 • Conversionmax means the conversion rate in the positive well without addition of compound • Conversionmin means the conversion rate in the well without addition of enzyme • Conversionsample means the conversion rate of test compounds The dose-response (percent inhibition) curve was plotted and IC50 values were determined by GraphPad software.
# JAK2 = target: T2, JAK2 (Homo sapiens, UniProt O60674); assay: JAK2 microfluidic kinase assay (Caliper EZ Reader II, FAM labeled peptide substrate)
# T2 construct: purchased Carna Biosciences
# In short: (§1)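 Activity measured in 50 mM HEPES, 0.01% Brij35, 10 mM MgCl2, 2 mM DTT by microfluidic separation of phosphorylated FAM peptide. Enzyme conditions set for 10% substrate conversion.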
# JAK1 = target: T3, JAK1 (Homo sapiens, UniProt P23458); assay: JAK1 microfluidic kinase assay (Caliper EZ Reader II, FAM labeled peptide substrate); conditions: IC50 JAK1 (5 nM) (1 m MATP), JAK1 5 nM, 1 mM ATP
# T3 construct: purchased Carna Biosciences
# In short: as §1
# [1] = IC50 JAK2 ([…]) (1 mM ATP), 1 mM ATP
# T3 sequence (P23458 whole entry): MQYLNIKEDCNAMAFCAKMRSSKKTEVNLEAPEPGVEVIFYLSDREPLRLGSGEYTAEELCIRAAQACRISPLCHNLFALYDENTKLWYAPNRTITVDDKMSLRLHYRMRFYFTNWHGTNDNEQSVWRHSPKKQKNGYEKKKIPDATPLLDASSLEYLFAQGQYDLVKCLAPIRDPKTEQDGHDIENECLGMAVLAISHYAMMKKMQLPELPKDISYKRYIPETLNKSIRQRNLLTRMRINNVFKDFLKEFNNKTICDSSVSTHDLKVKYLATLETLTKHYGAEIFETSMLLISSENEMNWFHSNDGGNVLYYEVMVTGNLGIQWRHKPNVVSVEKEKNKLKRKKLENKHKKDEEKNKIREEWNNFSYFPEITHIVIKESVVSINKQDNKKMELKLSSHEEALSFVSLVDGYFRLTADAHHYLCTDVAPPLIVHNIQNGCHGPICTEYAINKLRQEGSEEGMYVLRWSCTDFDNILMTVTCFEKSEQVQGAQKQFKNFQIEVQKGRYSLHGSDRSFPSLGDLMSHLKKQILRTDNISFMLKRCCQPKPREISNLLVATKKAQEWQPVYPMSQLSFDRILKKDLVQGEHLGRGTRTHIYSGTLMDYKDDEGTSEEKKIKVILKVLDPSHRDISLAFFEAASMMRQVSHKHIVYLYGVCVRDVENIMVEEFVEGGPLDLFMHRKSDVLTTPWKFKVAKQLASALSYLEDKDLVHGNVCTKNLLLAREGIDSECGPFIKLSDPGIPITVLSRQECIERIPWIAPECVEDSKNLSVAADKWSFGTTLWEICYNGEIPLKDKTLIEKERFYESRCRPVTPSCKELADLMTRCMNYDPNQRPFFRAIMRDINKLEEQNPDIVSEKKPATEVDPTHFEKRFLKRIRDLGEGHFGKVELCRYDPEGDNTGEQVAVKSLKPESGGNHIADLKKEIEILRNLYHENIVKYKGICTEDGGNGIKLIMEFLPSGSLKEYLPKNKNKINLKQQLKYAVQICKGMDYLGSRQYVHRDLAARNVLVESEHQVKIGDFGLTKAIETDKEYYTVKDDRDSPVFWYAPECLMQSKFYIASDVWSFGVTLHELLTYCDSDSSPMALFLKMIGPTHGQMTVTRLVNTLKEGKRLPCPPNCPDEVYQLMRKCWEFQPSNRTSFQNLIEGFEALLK
# T1 sequence (P29597 whole entry): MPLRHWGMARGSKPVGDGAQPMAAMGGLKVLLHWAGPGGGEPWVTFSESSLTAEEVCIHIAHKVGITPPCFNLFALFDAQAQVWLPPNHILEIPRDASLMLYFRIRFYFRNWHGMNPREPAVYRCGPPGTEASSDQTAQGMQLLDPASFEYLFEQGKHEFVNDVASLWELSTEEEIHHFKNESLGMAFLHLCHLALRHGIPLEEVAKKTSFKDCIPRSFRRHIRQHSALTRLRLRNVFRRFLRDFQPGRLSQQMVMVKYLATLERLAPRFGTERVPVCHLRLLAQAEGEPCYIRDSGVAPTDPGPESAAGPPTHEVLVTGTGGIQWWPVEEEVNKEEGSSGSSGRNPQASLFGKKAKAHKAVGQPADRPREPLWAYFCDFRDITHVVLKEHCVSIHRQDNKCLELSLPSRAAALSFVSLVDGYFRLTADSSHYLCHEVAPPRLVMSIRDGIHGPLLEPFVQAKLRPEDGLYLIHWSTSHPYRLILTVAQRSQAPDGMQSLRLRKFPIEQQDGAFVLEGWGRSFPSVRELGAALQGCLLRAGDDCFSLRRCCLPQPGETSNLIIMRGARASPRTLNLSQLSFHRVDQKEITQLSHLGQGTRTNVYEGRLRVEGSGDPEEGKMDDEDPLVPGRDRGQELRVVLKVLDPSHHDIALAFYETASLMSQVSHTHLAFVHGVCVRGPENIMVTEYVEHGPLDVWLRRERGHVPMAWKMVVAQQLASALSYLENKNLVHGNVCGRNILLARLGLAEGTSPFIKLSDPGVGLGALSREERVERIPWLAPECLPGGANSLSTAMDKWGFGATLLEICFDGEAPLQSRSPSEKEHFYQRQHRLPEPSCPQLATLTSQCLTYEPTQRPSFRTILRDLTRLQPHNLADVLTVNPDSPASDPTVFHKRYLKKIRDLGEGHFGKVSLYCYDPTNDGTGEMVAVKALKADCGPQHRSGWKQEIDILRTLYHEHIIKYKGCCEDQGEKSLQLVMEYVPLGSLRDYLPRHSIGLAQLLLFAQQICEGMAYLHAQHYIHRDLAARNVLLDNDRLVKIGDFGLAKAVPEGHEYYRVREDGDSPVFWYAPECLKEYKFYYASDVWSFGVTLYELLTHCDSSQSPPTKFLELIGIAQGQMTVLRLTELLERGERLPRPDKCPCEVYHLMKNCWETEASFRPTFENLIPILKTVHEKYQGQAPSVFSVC
# T2 sequence (O60674 whole entry): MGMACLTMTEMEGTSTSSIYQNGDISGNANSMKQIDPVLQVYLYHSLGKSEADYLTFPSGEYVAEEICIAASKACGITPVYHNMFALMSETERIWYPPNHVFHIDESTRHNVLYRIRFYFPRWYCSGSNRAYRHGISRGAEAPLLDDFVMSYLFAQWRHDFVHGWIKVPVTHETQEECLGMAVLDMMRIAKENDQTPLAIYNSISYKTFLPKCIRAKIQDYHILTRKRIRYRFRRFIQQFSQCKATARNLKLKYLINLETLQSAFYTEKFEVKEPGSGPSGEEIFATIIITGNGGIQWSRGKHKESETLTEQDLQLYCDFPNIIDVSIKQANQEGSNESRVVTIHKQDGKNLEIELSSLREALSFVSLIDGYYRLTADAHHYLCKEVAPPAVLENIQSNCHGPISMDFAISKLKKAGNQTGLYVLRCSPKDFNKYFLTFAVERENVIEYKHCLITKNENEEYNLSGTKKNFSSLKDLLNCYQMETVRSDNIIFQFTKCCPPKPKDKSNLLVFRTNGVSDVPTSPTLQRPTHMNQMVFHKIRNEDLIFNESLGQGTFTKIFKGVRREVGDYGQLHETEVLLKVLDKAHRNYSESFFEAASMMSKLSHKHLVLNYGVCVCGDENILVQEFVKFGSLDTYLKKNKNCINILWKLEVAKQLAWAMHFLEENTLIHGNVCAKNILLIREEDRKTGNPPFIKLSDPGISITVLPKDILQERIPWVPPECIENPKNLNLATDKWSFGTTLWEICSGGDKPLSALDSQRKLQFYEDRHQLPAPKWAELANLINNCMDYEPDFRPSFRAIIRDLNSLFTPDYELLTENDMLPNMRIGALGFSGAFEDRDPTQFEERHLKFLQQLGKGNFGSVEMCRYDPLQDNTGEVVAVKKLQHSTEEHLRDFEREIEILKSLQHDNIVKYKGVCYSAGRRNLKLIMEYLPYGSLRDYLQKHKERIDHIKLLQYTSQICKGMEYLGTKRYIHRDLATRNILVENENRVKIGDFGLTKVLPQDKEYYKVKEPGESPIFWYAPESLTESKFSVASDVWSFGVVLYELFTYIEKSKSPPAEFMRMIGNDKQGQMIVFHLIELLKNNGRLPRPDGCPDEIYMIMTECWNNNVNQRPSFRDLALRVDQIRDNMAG
SMILES,IC50 (TYK2) [nM],IC50 (JAK2; [1]) [nM],IC50 (JAK1) [nM],"IC50 (JAK2; IC50 JAK2 ([…]) (Km ATP), Km ATP) [nM]"
"CC[C@@H](C#N)NC(=O)c1ccc(-c2nc(Nc3cnn(C4CCNCC4)c3)ncc2C)cc1 [Example 171, (S)—N-(1-Cyanopropyl)-4-(5-methyl-2-((1-(piperidin-4-yl)-1H-pyrazol-4-yl)amino)pyrimidin-4-yl)benzamide]",0.88,0.78,1.84,
"C[C@H](C#N)NC(=O)c1ccc(-c2nc(Nc3cnn(C4CCN(C)CC4)c3)ncc2Cl)cc1 [Example 58, (R)-4-(5-Chloro-2-((1-(1-methylpiperidin-4-yl)-1H-pyrazol-4-yl)amino)pyrimidin-4-yl)-N-(1-cyanoethyl)benzamide]",272,42.2,34.8,
"CCC[C@@H](C#N)NC(=O)c1ccc(-c2nc(Nc3cnn(C4CCNCC4)c3)ncc2C)cc1 [Example 175, (S)—N-(1-Cyanobutyl)-4-(5-methyl-2-((1-(piperidin-4-yl)-1H-pyrazol-4-yl)amino)pyrimidin-4-yl)benzamide]",2.22,0.51,1.48,
"Cc1cnc(Nc2ccn(C)n2)nc1-c1ccc(C(=O)NCC#N)cc1 [Example 107, N-(Cyanomethyl)-4-(5-methyl-2-((1-methyl-1H-pyrazol-3-yl)amino)pyrimidin-4-yl)benzamide]",> 5000,1150,2310,28.1
"CCC[C@@H](C#N)NC(=O)c1ccc(-c2nc(Nc3cnn(C4CCN(C)CC4)c3)ncc2C)cc1 [Example 176, (S)—N-(1-cyanobutyl)-4-(5-methyl-2-((1-(1-methylpiperidin-4-yl)-1H-pyrazol-4-yl)amino)pyrimidin-4-yl)benzamide]",1.1,0.85,1.35,
"Cc1cnc(Nc2cnn(C3CCNCC3)c2)nc1-c1ccc(C(=O)N[C@@H](C)C#N)cc1 [Example 170, (S)—N-(1-Cyanoethyl)-4-(5-methyl-2-((1-(piperidin-4-yl)-1H-pyrazol-4-yl)amino)pyrimidin-4-yl)benzamide]",1.04,0.78,6.66,
"CCC[C@@H](C#N)NC(=O)c1ccc(-c2nc(Nc3cnn(CCO)c3)ncc2C)cc1 [Example 192, (S)—N-(1-cyanobutyl)-4-(2-((1-(2-hydroxyethyl)-1H-pyrazol-4-yl)amino)-5-methylpyrimidin-4-yl)benzamide]",14.7,22.5,2.45,
"CC[C@@H](C#N)NC(=O)c1ccc(-c2nc(Nc3cnn(C(C)C(F)(F)F)c3)ncc2C)cc1 (single isomer, unassigned) [Example 225, N—((S)-1-Cyanopropyl)-4-(5-methyl-2-((1-((R*)-1,1,1-trifluoropropan-2-yl)-1H-pyrazol-4-yl)amino)pyrimidin-4-yl)benzamide]",66.9,42.6,8.95,
"C[C@@H](C#N)NC(=O)c1ccc(-c2nc(Nc3cnn(CCC#N)c3)ncc2Cl)cc1 [Example 189, (S)-4-(5-Chloro-2-((1-(2-cyanoethyl)-1H-pyrazol-4-yl)amino)pyrimidin-4-yl)-N-(1-cyanoethyl)benzamide]",85,44,4.02,
"Cc1cnc(Nc2cnn(C3CCN(CCO)CC3)c2)nc1-c1ccc(C(=O)N[C@@H](C)C#N)cc1 [Example 204, (S)—N-(1-cyanoethyl)-4-(2-((1-(1-(2-hydroxyethyl)piperidin-4-yl)-1H-pyrazol-4-yl)amino)-5-methylpyrimidin-4-yl)benzamide]",33.3,0.91,1.88,
"N#CCNC(=O)c1ccc(-c2nc(Nc3cnn(CC#N)c3)ncc2Cl)cc1 [Example 41, 4-(5-Chloro-2-((1-(cyanomethyl)-1H-pyrazol-4-yl)amino)pyrimidin-4-yl)-N-(cyanomethyl)benzamide]",71.2,31.8,6.45,
"CC[C@@H](C#N)NC(=O)c1ccc(-c2nc(Nc3cnn(C4CC(C)(C)OC(C)(C)C4)c3)ncc2C)cc1 [Example 179, (S)—N-(1-cyanopropyl)-4-(5-methyl-2-((1-(2,2,6,6-tetramethyltetrahydro-2H-pyran-4-yl)-1H-pyrazol-4-yl)amino)pyrimidin-4-yl)benzamide]",< 0.25,0.43,6.03,
"Cc1cnc(Nc2cnn(C3CCN(C(=O)CO)CC3)c2)nc1-c1ccc(C(=O)NCC#N)cc1 [Example 207, N-(cyanomethyl)-4-(2-((1-(1-(2-hydroxyacetyl)piperidin-4-yl)-1H-pyrazol-4-yl)amino)-5-methylpyrimidin-4-yl)benzamide]",50.6,< 0.25,15.2,
"COC[C@@H](C#N)NC(=O)c1ccc(-c2nc(Nc3cnn(CCO)c3)ncc2C)cc1 [Example 221, (R)—N-(1-cyano-2-methoxyethyl)-4-(2-((1-(2-hydroxyethyl)-1H-pyrazol-4-yl)amino)-5-methylpyrimidin-4-yl)benzamide]",62.3,54.8,10.4,
"Cc1cnc(Nc2cnn([C@H]3C[C@@H](C)N[C@@H](C)C3)c2)nc1-c1ccc(C(=O)N[C@@H](C)C#N)cc1 [Example 232, N—((S)-1-cyanoethyl)-4-(2-((1-((2S,4r,6R)-2,6-dimethylpiperidin-4-yl)-1H-pyrazol-4-yl)amino)-5-methylpyrimidin-4-yl)benzamide]",2.97,0.43,9.9,
"Cc1cnc(Nc2cnn(C3CCNCC3)c2)nc1-c1ccc(C(=O)N[C@H](C#N)C2CC2)cc1 [Example 156, (S)—N-(cyano(cyclopropyl)methyl)-4-(5-methyl-2-((1-(piperidin-4-yl)-1H-pyrazol-4-yl)amino)pyrimidin-4-yl)benzamide]",3.15,0.79,2.93,
"Cc1cnc(Nc2cnn(CC#N)c2)nc1-c1ccc(C(=O)N[C@H](C)C#N)cc1 [Example 54, (R)—N-(1-cyanoethyl)-4-(2-((1-(cyanomethyl)-1H-pyrazol-4-yl)amino)-5-methylpyrimidin-4-yl)benzamide]",304,210,34.3,
"C[C@@H](C#N)NC(=O)c1ccc(-c2nc(Nc3cnn(C4CCN(C(=O)CO)CC4)c3)ncc2Cl)cc1 [Example 214, (S)-4-(5-chloro-2-((1-(1-(2-hydroxyacetyl)piperidin-4-yl)-1H-pyrazol-4-yl)amino)pyrimidin-4-yl)-N-(1-cyanoethyl)benzamide]",59.6,< 0.25,15.6,
"N#CCNC(=O)c1ccc(-c2nc(Nc3cnn(CC#N)c3)ncc2F)cc1 [Example 45, N-(cyanomethyl)-4-(2-((1-(cyanomethyl)-1H-pyrazol-4-yl)amino)-5-fluoropyrimidin-4-yl)benzamide]",251,256,59.6,
"Cc1cnc(Nc2cnn(C3CC3)c2)nc1-c1ccc(C(=O)N(C)CC#N)cc1 [Example 108, N-(cyanomethyl)-4-(2-((1-cyclopropyl-1H-pyrazol-4-yl)amino)-5-methylpyrimidin-4-yl)-N-methylbenzamide]",1150,461,628,
"Cc1cnc(Nc2cnn(C3C[C@@H](C)N[C@H](C)C3)c2)nc1-c1ccc(C(=O)N[C@@H](C)C#N)cc1 (stereo partly drawn) [Example 230, N—((S)-1-cyanoethyl)-4-(2-((1-(trans-2,6-dimethylpiperidin-4-yl)-1H-pyrazol-4-yl)amino)-5-methylpyrimidin-4-yl)benzamide]",24.2,0.71,14.2,
"C[C@@H](C#N)NC(=O)c1ccc(-c2nc(Nc3cnn(CC(N)=O)c3)ncc2Cl)cc1 [Example 47, (S)-4-(2-((1-(2-amino-2-oxoethyl)-1H-pyrazol-4-yl)amino)-5-chloropyrimidin-4-yl)-N-(1-cyanoethyl)benzamide]",50.6,36.6,5.67,
"Cc1cnc(Nc2cnn([C@@H]3C[C@@H](C)N[C@@H](C)C3)c2)nc1-c1ccc(C(=O)N[C@@H](C)C#N)cc1 [Example 231, N—((S)-1-cyanoethyl)-4-(2-((1-((2S,4s,6R)-2,6-dimethylpiperidin-4-yl)-1H-pyrazol-4-yl)amino)-5-methylpyrimidin-4-yl)benzamide]",245,1.63,80.6,
"CC[C@@H](C#N)NC(=O)c1ccc(-c2nc(Nc3cnn(C4CCCN(C)C4)c3)ncc2C)cc1 (stereo partly drawn) [Example 211, N—((S)-1-cyanopropyl)-4-(5-methyl-2-((1-(1-methylpiperidin-3-yl)-1H-pyrazol-4-yl)amino)pyrimidin-4-yl)benzamide]",58.1,0.66,20.5,
